Source: patent publication US5380715A, “Ap4 A as a hypotensive agent” (Fujirebio Inc., priority 1992, dated 1995)
Entries after “also recorded” stand apart in the source; their conditions may differ.

Columns and labels:
[1] = words; cited from earlier work
[2] = test system: rats; test: Effects on cerebral blood flow, blood pressure and heart rate in anesthetized rats; type: in vivo, male SD rats; settings: rat
Method: Male SD rats (Charles River Japan Inc.) were anesthetized with intravenous urethane (0.5 g/kg)+α-chloralose (80 mg/kg).
A femoral artery was catheterized to monitor the blood pressure and heart rate, while a femoral vein was catheterized for the aministration of each of the test drugs.
The head of each rat was fixed to a brain position fixing device and a hole was made at a top portion of the cranium. A laser blood flow probe was mounted on the cranium so as to touch the surface of the cerebral cortex through the hole, whereby the cerebral blood flow thereof was measured. A predetermined amount of Ap4A was applied by bolus injection and by infusion.

[3] = test system: rabbit erythrocytes; test: Inhibitory effect on rabbit erythrocyte crenation induced by A23187; type: cell-based; settings: for Crenation: x ± SE; for inhibition of A23187-induced erythrocyte crenation: result in words
Method: Fresh blood was collected from Japanese white rabbits weighing 2-3 kg. Blood samples were anticoagulated with citric acid (1 ml 3.8% Citric acid solution+10 ml blood). These samples were centrifuged at room temperature for 15 min at 1100 rpm. After centrifugation of the defibrinated blood, the upper cell layers were discarded. The erythrocytes (pellet) were washed 4 times in a medium containing; 56.6 mM Tris-HCl, pH 7.6, 100 mM NaCl, 4.6 mM KCl,0.64 mM MgCl2. The erythrocytes were preincubated with saline solution or Ap4 A at 37° C for 10min and then A23187 1×10^-6 M and CaCl2 5×10^-7 M were added to the Mixture. After incubation at 37° C. for 20 min, the reaction mixture was centrifugated at 1000 rpm for 10 min. The precipitation was fixed by addition of 0.1M cacodylate buffer containing 0.22M sucrose. The number of transforming erythrocytes was counted using a microscope.

[4] = test system: rabbit mesenteric arteries; settings: words; cited from earlier work
[5] = test system: human platelet-aggregation; settings: words; cited from earlier work
[6] = test system: isolated rat heart; test: Protective effect on deoxygenation-induced cardiac damage (Langendorff heart); design: species or system male SD rats; settings: 1×10^-4 M, 33 min global ischemia; words
Method: The protective effect of Ap4A against ischemia by use of a Langendorff heart (Aronson, CE. and Serlick, ER. Toxicol. Appl. Pharmac. 38, 479-488 (1976)) was tested.
Deoxygenation-induced cardiac damage according to the method of Aronson & Serlich (Toxical. appl. Parmac. 38, 479-488, 1976) with slight modifications. Male SD rats (Charles River Japan Inc.) weighing 320 to 390 g were anesthetized with ether, and heart quickly isolated. The isolated rat heart was mounted and perfused with Krebs-Henselite solution (118 mM NaCl, 4.7 mM KCl, 2.5 mM CaCl2, 1.2 mM MgSO4, 1.2 mM KH2 PO4, 25 mM NaHCO3 and 10 mM glucose) bubbled with 95% O2 +5% CO2 at a flow rates of 14 ml/min. at 37° C. The myocardial function was monitored by the left ventricular pressure (L.V.P.), differential values of L.V.P. (dp/dt), heart rate (H.R.) and perfused pressure (P.P.) through a branch of an aortic canula mounted on the heart. After equilibrate for 40 min., global ischemia was produced by stopping the perfusing solution and the heart was incubated for 33 min. in 50 ml Krebs-Henselite bubble with N2 gas (control). 33 min. later, the buffer solution was removed. The perfusion was re-started, and the myocardial function was measured. The heart was incubated in Krebs-Henselite solution containing Ap4A 1×10^-4 M during global ischemia.

[7] = test system: rabbit platelet aggregation; test: Platelet aggregate dispersing effect; type: cell-based; settings: ADP- and PAF-induced; result in words (FIG. 5)
Method: Fresh blood samples were collected from male Japanese white rabbits weighing 2-3 kg. Blood was anticoagulated with citric acid (1 ml 3.8% citric acid solution +9 ml blood). These samples were centrifuged at room temperature for 20 min at 200×g to obtained platelet-rich plasma (PRP). Furthermore, the supernatant liquid was centrifuged for 10 min at 1500×g to obtained platelet-poor plasma (PPP). Aggregation of platelests was measured photometrically in a Nihon Kohden hema tracer equipped with a mechanical stirring device and with a chart record. At this time, the chart recorder was calibrated as follows: the light transmission obtained with PPP was set as 100% transmission and the optical density of PRP was taken as 0% transmission. Maximal aggregation, i.e. the maximal change in optical density of the primary wave calculated in percent light transmission. From the study, it was determined that ADP, Ap3A, PAF(platelet activating factor) and collagen induced maximal aggregations at a concentration of 1×10^-5 M, 1×10^-4 M, 1.9×10^-7 M and 5 μg/kg, respectively. In the following studies, these aggregating agents were used at maximal dose. The effect of Ap4A on platelet aggregation by ADP and Ap3A were tested. In this time, Ap4A was pretreated for 1 or 10 min before the addition of aggregating agents. […]

[8] = test system: blood pressure; test: Gradual hypotension under halothane or urethane + α-chloralose anesthesia; type: in vivo; settings: halothane anesthesia; urethane (0.5 g/kg) + α-chloralose (80 mg/kg) anesthesia; words

In the case of `Nc1ncnc2c1ncn2[C@@H]1O[C@H](COP(=O)(O)OP(=O)(O)OP(=O)(O)OP(=O)(O)OC[C@H]2O[C@@H](n3cnc4c(N)ncnc43)[C@H](O)[C@@H]2O)[C@@H](O)[C@H]1O` [Ap4A, diadenosine 5',5'"-p^1,p^4 -tetraphosphate], the arrhythmic effect [1] is listed as “an arrhythmic effect”, the “B.P. Δ%” value ([2]; bolus injection 0.1 μg/kg) is listed as 0% and the “C.B.F. Δ%” value ([2]; bolus injection 0.1 μg/kg) is listed as 2.7%. For the same compound, the “H.R. Δ%” value ([2]; bolus injection 0.1 μg/kg) was 4.0%, the “B.P. Δ%” value ([2]; bolus injection 0.3 μg/kg) was 0% and the “C.B.F. Δ%” value ([2]; bolus injection 0.3 μg/kg) was 7.9%. The “H.R. Δ%” value ([2]; bolus injection 0.3 μg/kg) was -7.0%, the “B.P. Δ%” value ([2]; bolus injection 1 μg/kg) was 5.0 ± 2.9% and the “C.B.F. Δ%” value ([2]; bolus injection 1 μg/kg) was 9.3 ± 2.5%. The “H.R. Δ%” value ([2]; bolus injection 1 μg/kg) was 10.3 ± 10.1%, the “B.P. Δ%” value ([2]; bolus injection 3 μg/kg) was -6.2 ± 5.0% and the “C.B.F. Δ%” value ([2]; bolus injection 3 μg/kg) was 10.0 ± 2.0%. For the same compound, the “H.R. Δ%” value ([2]; bolus injection 3 μg/kg) was 4.6 ± 3.4%, the “B.P. Δ%” value ([2]; bolus injection 10 μg/kg) was -9.9 ± 4.6% and the “C.B.F. Δ%” value ([2]; bolus injection 10 μg/kg) was 21.7 ± 6.0%. The “H.R. Δ%” value ([2]; bolus injection 10 μg/kg) was 3.2 ± 2.0%, the “B.P. Δ%” value ([2]; bolus injection 30 μg/kg) was -23.2 ± 3.5% and the “C.B.F. Δ%” value ([2]; bolus injection 30 μg/kg) was 16.8 ± 3.5%. The “H.R. Δ%” value ([2]; bolus injection 30 μg/kg) was 6.4 ± 1.2%, the “B.P. Δ%” value ([2]; bolus injection 100 μg/kg) was -34.4 ± 2.5% and the “C.B.F. Δ%” value ([2]; bolus injection 100 μg/kg) was 15.8 ± 4.0%. The “H.R. Δ%” value ([2]; bolus injection 100 μg/kg) was 7.4 ± 3.5%, the “B.P. Δ%” value ([2]; bolus injection 300 μg/kg) was -40.5 ± 5.2% and the “C.B.F. Δ%” value ([2]; bolus injection 300 μg/kg) was 9.8 ± 4.0%. The “H.R. Δ%” value ([2]; bolus injection 300 μg/kg) was 10.9 ± 4.5%, the “B.P. Δ%” value ([2]; bolus injection 1 mg/kg) was -50.4 ± 1.4% and the “C.B.F. Δ%” value ([2]; bolus injection 1 mg/kg) was 8.5 ± 3.4%. For the same compound, the “H.R. Δ%” value ([2]; bolus injection 1 mg/kg) was 7.4 ± 6.0%, the “B.P. Δ%” value ([2]; bolus injection 3 mg/kg) was -54.0 ± 2.5% and the “C.B.F. Δ%” value ([2]; bolus injection 3 mg/kg) was 23.7 ± 9.3%. For the same compound, the “H.R. Δ%” value ([2]; bolus injection 3 mg/kg) was 6.2 ± 21.1%, the “B.P. Δ%” value ([2]; bolus injection 10 mg/kg) was -63.5 ± 5.6% and the “C.B.F. Δ%” value ([2]; bolus injection 10 mg/kg) was 46.3 ± 11.5%. For the same compound, the “H.R. Δ%” value ([2]; bolus injection 10 mg/kg) was -78.8 ± 2.7%, the “B.P. Δ%” value ([2]; bolus injection 30 mg/kg) was -60.7 ± 7.0% and the “C.B.F. Δ%” value ([2]; bolus injection 30 mg/kg) was 34.0 ± 16.9%. The cerebral blood flow ([2]; bolus injection, result in words) was “improved by bolus injection of Ap4A”, the “increase in C.B.F.” value ([2]; bolus, when about 20-40% fall in blood pressure) was 10-20% and the cerebral blood flow ([2]; continuous administration, result in words (FIG. 2)) was “The same effects were also observed in the continuous administration of Ap4A; also recorded: Cerebral blood flow was increased during continuous administration of Ap4A”. The Crenation ([3]; 10^-3 M, P < 0.01 vs control) was 19.2 ± 9.1%, the Crenation ([3]; 10^-4 M, P < 0.05 vs control) was 37.0 ± 6.4% and the Crenation ([3]; 10^-5 M) was 49.1 ± 3.9%. It also gave an inhibition at 1000 µM ([3]; Oryctolagus cuniculus, Erythrocyte, 10^-3 M) of 66.1%, an inhibition at 100 µM ([3]; Oryctolagus cuniculus, Erythrocyte, 10^-4 M) of 34.6% and an inhibition at 10 µM ([3]; Oryctolagus cuniculus, Erythrocyte, 10^-5 M) of 13.3%. For the same compound, the IC50 ([3]; Oryctolagus cuniculus, Erythrocyte, A23187-induced crenation) was 300 µM, the “inhibition of A23187-induced erythrocyte crenation” value [3] was “significant inhibitory effect” and the “inhibition of A23187-induced erythrocyte crenation” value ([3]; listed as Ap4 A) was “A23187-induced rabbit erythrocyte crenation was inhibited”. The vasodilating effect [4] was “a vasodilating effect of rabbit mesenteric arteries”, the “ADP-induced human platelet-aggregation inhibitory effect” value [5] was “ADP-induced human platelet-aggregation inhibitory effect” and the “prevention of cardiac damage (loss of L.V.P., dp/dt and H.R.)” value [6] was “significantly prevented cardiac damage (loss of L.V.P., dp/dt and H.R.) induced by deoxygenation; also recorded: the above-mentioned impairment in the untreated Langendorff heart was found to be prevented”. The “platelet aggregate dispersing effect” value [7] was “Both ADP- and PAF-induced platelet aggregations were dispersed; also recorded: dispersing aggregated lumps formed by PAF (platelet activating factor) and ADP” and the gradual hypotensive effect [8] was “almost the same gradual hypotensive effect”.
